Measured values published in PubChem BioAssay (NCI).
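Test compounds were applied to cells in 96-well plates for 48 hours at 5 doses. TGI: total growth inhibition.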

Key:
Experiment in all cases: DTP human tumour cell line panel, 48 h
TK-10 renal = test system: TK-10 renal
CAKI-1 renal = test system: CAKI-1 renal
T-47D breast = test system: T-47D breast
OVCAR-8 ovarian = test system: OVCAR-8 ovarian
DU-145 prostate = test system: DU-145 prostate
NCI-H23 lung = test system: NCI-H23 lung
786-0 renal = test system: 786-0 renal
PC-3 prostate = test system: PC-3 prostate
SK-MEL-5 melanoma = test system: SK-MEL-5 melanoma
HS 578T breast = test system: HS 578T breast
UACC-257 melanoma = test system: UACC-257 melanoma
SNB-19 CNS = test system: SNB-19 CNS
HL-60(TB) leukemia = test system: HL-60(TB) leukemia
MALME-3M melanoma = test system: MALME-3M melanoma
SK-OV-3 ovarian = test system: SK-OV-3 ovarian
NCI-H460 lung = test system: NCI-H460 lung
ACHN renal = test system: ACHN renal
A498 renal = test system: A498 renal
K-562 leukemia = test system: K-562 leukemia
M14 melanoma = test system: M14 melanoma
MDA-N = test system: MDA-N
LOX IMVI melanoma = test system: LOX IMVI melanoma
MCF7 breast = test system: MCF7 breast
COLO 205 colon = test system: COLO 205 colon
RPMI-8226 leukemia = test system: RPMI-8226 leukemia
HCT-15 colon = test system: HCT-15 colon
EKVX NSCLC = test system: EKVX NSCLC
A549 NSCLC = test system: A549 NSCLC
OVCAR-3 ovarian = test system: OVCAR-3 ovarian
IGROV1 ovarian = test system: IGROV1 ovarian
HOP-92 NSCLC = test system: HOP-92 NSCLC
U251 CNS = test system: U251 CNS
MDA-MB-435 = test system: MDA-MB-435
SF-539 CNS = test system: SF-539 CNS
SK-MEL-28 melanoma = test system: SK-MEL-28 melanoma
SF-268 CNS = test system: SF-268 CNS
NCI-H522 lung = test system: NCI-H522 lung
UACC-62 melanoma = test system: UACC-62 melanoma
HT29 colon = test system: HT29 colon
SN12C renal = test system: SN12C renal
SNB-75 CNS = test system: SNB-75 CNS
KM12 colon = test system: KM12 colon
MOLT-4 leukemia = test system: MOLT-4 leukemia
OVCAR-4 ovarian = test system: OVCAR-4 ovarian
NCI-H226 lung = test system: NCI-H226 lung
NCI/ADR-RES ovarian = test system: NCI/ADR-RES ovarian
HOP-62 NSCLC = test system: HOP-62 NSCLC
SK-MEL-2 melanoma = test system: SK-MEL-2 melanoma
SF-295 CNS = test system: SF-295 CNS
HCT-116 colon = test system: HCT-116 colon
MDA-MB-231 breast = test system: MDA-MB-231 breast
OVCAR-5 ovarian = test system: OVCAR-5 ovarian
SR leukemia = test system: SR leukemia
UO-31 renal = test system: UO-31 renal
BT-549 breast = test system: BT-549 breast
CCRF-CEM leukemia = test system: CCRF-CEM leukemia
HCC-2998 colon = test system: HCC-2998 colon
RXF 393 renal = test system: RXF 393 renal
SW-620 colon = test system: SW-620 colon

CCOC(=O)c1cc(-c2ccc(OC)c(OC)c2)cn1C
TGI (TK-10 renal): > 10 µM | TGI (CAKI-1 renal): > 10 µM | TGI (T-47D breast): > 10 µM | TGI (OVCAR-8 ovarian): > 10 µM | TGI (DU-145 prostate): > 10 µM | TGI (NCI-H23 lung): > 10 µM | TGI (786-0 renal): > 10 µM | TGI (PC-3 prostate): > 10 µM | TGI (SK-MEL-5 melanoma): > 10 µM | TGI (HS 578T breast): > 10 µM | TGI (UACC-257 melanoma): > 10 µM | TGI (SNB-19 CNS): > 10 µM | TGI (HL-60(TB) leukemia): > 10 µM | TGI (MALME-3M melanoma): > 10 µM | TGI (SK-OV-3 ovarian): > 10 µM | TGI (NCI-H460 lung): > 10 µM | TGI (ACHN renal): > 10 µM | TGI (A498 renal): > 10 µM | TGI (K-562 leukemia): > 10 µM | TGI (M14 melanoma): > 10 µM | TGI (MDA-N): > 10 µM | TGI (LOX IMVI melanoma): > 10 µM | TGI (MCF7 breast): > 10 µM | TGI (COLO 205 colon): > 10 µM | TGI (RPMI-8226 leukemia): > 10 µM | TGI (HCT-15 colon): > 10 µM | TGI (EKVX NSCLC): > 10 µM | TGI (A549 NSCLC): > 10 µM | TGI (OVCAR-3 ovarian): > 10 µM | TGI (IGROV1 ovarian): > 10 µM | TGI (HOP-92 NSCLC): > 10 µM | TGI (U251 CNS): > 10 µM | TGI (MDA-MB-435): > 10 µM | TGI (SF-539 CNS): > 10 µM | TGI (SK-MEL-28 melanoma): > 10 µM | TGI (SF-268 CNS): > 10 µM | TGI (NCI-H522 lung): > 10 µM | TGI (UACC-62 melanoma): > 10 µM | TGI (HT29 colon): > 10 µM | TGI (SN12C renal): > 10 µM | TGI (SNB-75 CNS): > 10 µM | TGI (KM12 colon): > 10 µM | TGI (MOLT-4 leukemia): > 10 µM | TGI (OVCAR-4 ovarian): > 10 µM | TGI (NCI-H226 lung): > 10 µM | TGI (NCI/ADR-RES ovarian): > 10 µM | TGI (HOP-62 NSCLC): > 10 µM | TGI (SK-MEL-2 melanoma): > 10 µM | TGI (SF-295 CNS): > 10 µM | TGI (HCT-116 colon): > 10 µM | TGI (MDA-MB-231 breast): > 10 µM | TGI (OVCAR-5 ovarian): > 10 µM | TGI (SR leukemia): > 10 µM | TGI (UO-31 renal): > 10 µM | TGI (BT-549 breast): > 10 µM | TGI (CCRF-CEM leukemia): > 10 µM | TGI (HCC-2998 colon): > 10 µM | TGI (RXF 393 renal): > 10 µM

OC1(c2ccc(Cl)cc2)c2ccccc2C2=Nc3ccccc3CN21 (configuration not stated)
TGI (TK-10 renal): > 100 µM | TGI (CAKI-1 renal): > 100 µM | TGI (T-47D breast): > 100 µM | TGI (OVCAR-8 ovarian): 38.2 µM | TGI (DU-145 prostate): > 100 µM | TGI (NCI-H23 lung): > 100 µM | TGI (786-0 renal): 25.8 µM | TGI (PC-3 prostate): > 100 µM | TGI (SK-MEL-5 melanoma): > 100 µM | TGI (HS 578T breast): 74.1 µM | TGI (UACC-257 melanoma): > 100 µM | TGI (SNB-19 CNS): > 67.6 µM | TGI (HL-60(TB) leukemia): > 75.5 µM | TGI (MALME-3M melanoma): 92 µM | TGI (SK-OV-3 ovarian): > 100 µM | TGI (NCI-H460 lung): > 100 µM | TGI (ACHN renal): 28.6 µM | TGI (A498 renal): > 72.9 µM | TGI (K-562 leukemia): > 100 µM | TGI (M14 melanoma): > 100 µM | TGI (MDA-N): > 100 µM | TGI (LOX IMVI melanoma): > 100 µM | TGI (MCF7 breast): > 87.7 µM | TGI (COLO 205 colon): > 100 µM | TGI (RPMI-8226 leukemia): > 100 µM | TGI (HCT-15 colon): > 100 µM | TGI (SW-620 colon): > 100 µM | TGI (EKVX NSCLC): > 81.6 µM | TGI (A549 NSCLC): 28.6 µM | TGI (OVCAR-3 ovarian): 9.77 µM | TGI (IGROV1 ovarian): > 81.3 µM | TGI (HOP-92 NSCLC): > 100 µM | TGI (U251 CNS): > 100 µM | TGI (MDA-MB-435): > 100 µM | TGI (SF-539 CNS): > 100 µM | TGI (SK-MEL-28 melanoma): 98.3 µM | TGI (SF-268 CNS): > 100 µM | TGI (NCI-H522 lung): 67.2 µM | TGI (UACC-62 melanoma): > 100 µM | TGI (HT29 colon): 33.8 µM | TGI (SN12C renal): > 79.6 µM | TGI (SNB-75 CNS): 44 µM | TGI (KM12 colon): > 75.4 µM | TGI (MOLT-4 leukemia): > 100 µM | TGI (OVCAR-4 ovarian): 50.6 µM | TGI (NCI-H226 lung): > 71.9 µM | TGI (NCI/ADR-RES ovarian): 98.8 µM | TGI (HOP-62 NSCLC): 30.8 µM | TGI (SK-MEL-2 melanoma): > 89.6 µM | TGI (SF-295 CNS): > 50.4 µM | TGI (HCT-116 colon): 19 µM | TGI (MDA-MB-231 breast): > 100 µM | TGI (OVCAR-5 ovarian): > 100 µM | TGI (SR leukemia): > 84.8 µM | TGI (UO-31 renal): > 100 µM | TGI (BT-549 breast): > 100 µM | TGI (CCRF-CEM leukemia): > 100 µM | TGI (HCC-2998 colon): > 100 µM | TGI (RXF 393 renal): 55.4 µM
